The subject of the assay is HCT-116. Nature of the assay: Antiproliferative activity against human HCT116 cells assessed as reduction in cell viability incubated for 72 hrs by MTT assay. It is filed as functional, cell-based. Conditions: HCT-116, 72 h.
Consider `COc1cc(/C=C/C(=O)CC(=O)/C=C/c2ccc(O)c(OC)c2)ccc1O` [CURCUMIN], for which the IC50 is 10.5 µM.

For `COc1cc(CCC(=O)CC(C)=O)ccc1O`, the IC50 was determined as 182 µM.

In the case of `COc1cc(CCC(=O)CC(C)=O)cc(OC)c1OC`, the IC50 was 138 µM.

With `COc1cc(/C=C/C(=O)CC(C)=O)ccc1O`, the IC50 worked out at 1.4 µM.

In the case of `CC(=O)CC(=O)CCc1ccc(O)cc1`, the half-maximal inhibitory concentration (IC50) came to 213 µM.

On to `COc1ccc(/C=C/C(=O)CC(C)=O)cc1OC`, for which the IC50 is 4.7 µM.

In the case of `COc1cc(/C=C/C(=O)CC(C)=O)cc(OC)c1O`, the IC50 came to 24.7 µM.

Turning to `COc1cc(/C=C/C(=O)CC(C)=O)cc(OC)c1OC`, the IC50 amounted to 28.8 µM.

Turning to `COc1ccc(CCC(=O)CC(C)=O)cc1OC`, the IC50 came to 215 µM.

For the molecule `CC(=O)CC(=O)/C=C/c1ccc(O)c(O)c1`, the IC50 worked out at 5.2 µM.

On to `CC(=O)CC(=O)/C=C/c1ccc(O)cc1`, for which the IC50 was found to be 36 µM.

As for `COc1cc(OC)c(/C=C/C(=O)CC(C)=O)c(OC)c1`, the IC50 is 8.5 µM.

For the molecule `COc1cc(OC)c(CCC(=O)CC(C)=O)c(OC)c1`, the IC50 was 139 µM.

Source of the values: ChEMBL document CHEMBL4385650, “X-ray crystal structures, density functional theory and docking on deacetylase enzyme for antiproliferative activity of hispolon derivatives on HCT116 colon cancer” (Bioorg Med Chem, 2019).
